Data published in PubChem BioAssay (NCI).
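Interpolation was linear, between the two tested concentrations surrounding the appropriate level; five concentrations were tested over 48 hours in 96-well plates. At the TGI there is no net growth.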

Legend:
Test in all cases: NCI anticancer screen, dose series, 48 h
SNB-78 CNS = tested on: SNB-78 CNS
RXF 393 renal = tested on: RXF 393 renal
HOP-92 NSCLC = tested on: HOP-92 NSCLC
SF-295 CNS = tested on: SF-295 CNS
HT29 colon = tested on: HT29 colon
DMS 114 small cell lung = tested on: DMS 114 small cell lung
U251 CNS = tested on: U251 CNS
HOP-62 NSCLC = tested on: HOP-62 NSCLC
UO-31 renal = tested on: UO-31 renal
HOP-18 NSCLC = tested on: HOP-18 NSCLC
UACC-257 melanoma = tested on: UACC-257 melanoma
A549 NSCLC = tested on: A549 NSCLC
CCRF-CEM leukemia = tested on: CCRF-CEM leukemia
TK-10 renal = tested on: TK-10 renal
K-562 leukemia = tested on: K-562 leukemia
786-0 renal = tested on: 786-0 renal
ACHN renal = tested on: ACHN renal
SNB-19 CNS = tested on: SNB-19 CNS
SK-MEL-5 melanoma = tested on: SK-MEL-5 melanoma
EKVX NSCLC = tested on: EKVX NSCLC
XF 498 CNS = tested on: XF 498 CNS
LOX IMVI melanoma = tested on: LOX IMVI melanoma
UACC-62 melanoma = tested on: UACC-62 melanoma
SF-268 CNS = tested on: SF-268 CNS
NCI-H522 lung = tested on: NCI-H522 lung
RPMI-8226 leukemia = tested on: RPMI-8226 leukemia
DMS 273 small cell lung = tested on: DMS 273 small cell lung
OVCAR-3 ovarian = tested on: OVCAR-3 ovarian
SNB-75 CNS = tested on: SNB-75 CNS
COLO 205 colon = tested on: COLO 205 colon
M14 melanoma = tested on: M14 melanoma
MOLT-4 leukemia = tested on: MOLT-4 leukemia
HCT-116 colon = tested on: HCT-116 colon
SR leukemia = tested on: SR leukemia
SK-OV-3 ovarian = tested on: SK-OV-3 ovarian
NCI-H226 lung = tested on: NCI-H226 lung
OVCAR-4 ovarian = tested on: OVCAR-4 ovarian
SK-MEL-2 melanoma = tested on: SK-MEL-2 melanoma
HL-60(TB) leukemia = tested on: HL-60(TB) leukemia
KM20L2 colon = tested on: KM20L2 colon
NCI-H460 lung = tested on: NCI-H460 lung
SF-539 CNS = tested on: SF-539 CNS
SN12C renal = tested on: SN12C renal
IGROV1 ovarian = tested on: IGROV1 ovarian
KM12 colon = tested on: KM12 colon
OVCAR-5 ovarian = tested on: OVCAR-5 ovarian
SW-620 colon = tested on: SW-620 colon
LXFL 529 NSCLC = tested on: LXFL 529 NSCLC
NCI-H23 lung = tested on: NCI-H23 lung
OVCAR-8 ovarian = tested on: OVCAR-8 ovarian
SK-MEL-28 melanoma = tested on: SK-MEL-28 melanoma
M19-MEL melanoma = tested on: M19-MEL melanoma
HCT-15 colon = tested on: HCT-15 colon
CAKI-1 renal = tested on: CAKI-1 renal
DLD-1 colon = tested on: DLD-1 colon
HCC-2998 colon = tested on: HCC-2998 colon
A498 renal = tested on: A498 renal
MALME-3M melanoma = tested on: MALME-3M melanoma

Measured: TGI

CC1=CC2CCC1(C)C/C2=C(/C)OC=O (stereo not given)
> 100 µM: SNB-78 CNS | RXF 393 renal | HOP-92 NSCLC | SF-295 CNS | HT29 colon | DMS 114 small cell lung | U251 CNS | HOP-62 NSCLC | UO-31 renal | HOP-18 NSCLC | UACC-257 melanoma | A549 NSCLC | CCRF-CEM leukemia | TK-10 renal | K-562 leukemia | 786-0 renal | ACHN renal | SNB-19 CNS | SK-MEL-5 melanoma | EKVX NSCLC | XF 498 CNS | LOX IMVI melanoma | UACC-62 melanoma | SF-268 CNS | NCI-H522 lung | RPMI-8226 leukemia | DMS 273 small cell lung | OVCAR-3 ovarian | SNB-75 CNS | COLO 205 colon | M14 melanoma | MOLT-4 leukemia | HCT-116 colon | SR leukemia | SK-OV-3 ovarian | NCI-H226 lung | OVCAR-4 ovarian | SK-MEL-2 melanoma | HL-60(TB) leukemia | KM20L2 colon | NCI-H460 lung | SF-539 CNS | SN12C renal | IGROV1 ovarian | KM12 colon | OVCAR-5 ovarian | SW-620 colon | LXFL 529 NSCLC | NCI-H23 lung | OVCAR-8 ovarian | SK-MEL-28 melanoma | M19-MEL melanoma | HCT-15 colon | CAKI-1 renal | DLD-1 colon

FC(F)(F)C1(Cl)C(Cl)(c2ccccc2)C1(Cl)c1ccccc1 (stereo not given)
30.2 µM: M14 melanoma
29.9 µM: SNB-75 CNS | LXFL 529 NSCLC
23.1 µM: HOP-18 NSCLC
30 µM: HOP-62 NSCLC | OVCAR-5 ovarian
29.2 µM: DMS 114 small cell lung
35.4 µM: MOLT-4 leukemia
29.7 µM: UACC-62 melanoma
33.4 µM: COLO 205 colon
26.8 µM: LOX IMVI melanoma | HCT-15 colon
26 µM: IGROV1 ovarian
30.5 µM: NCI-H460 lung
29.4 µM: SF-295 CNS
33.2 µM: SNB-78 CNS
28.2 µM: HT29 colon | DMS 273 small cell lung | SK-MEL-28 melanoma
25.6 µM: CAKI-1 renal
28.3 µM: U251 CNS
29.3 µM: XF 498 CNS
32.8 µM: TK-10 renal
24.8 µM: HOP-92 NSCLC | HCT-116 colon
32.2 µM: OVCAR-8 ovarian
27.4 µM: NCI-H226 lung
30.4 µM: SF-539 CNS
29 µM: KM12 colon | M19-MEL melanoma
25.8 µM: SR leukemia
31.1 µM: HCC-2998 colon
27.7 µM: RXF 393 renal
30.1 µM: EKVX NSCLC
28.1 µM: UO-31 renal | UACC-257 melanoma | OVCAR-3 ovarian
28.6 µM: SN12C renal
28 µM: A549 NSCLC
55 µM: CCRF-CEM leukemia
> 100 µM: K-562 leukemia | RPMI-8226 leukemia | HL-60(TB) leukemia
54.7 µM: SK-OV-3 ovarian
26.9 µM: SK-MEL-5 melanoma | KM20L2 colon
31.7 µM: SF-268 CNS
27.5 µM: NCI-H23 lung
27.3 µM: OVCAR-4 ovarian
29.1 µM: SK-MEL-2 melanoma | SW-620 colon | DLD-1 colon
32.5 µM: SNB-19 CNS
29.5 µM: 786-0 renal | ACHN renal

O=C1OC2C(O)COC2(O)C1(O)Cc1c[nH]c2ccccc12 (stereo not given)
> 100 µM: SNB-78 CNS | RXF 393 renal | HOP-92 NSCLC | SF-295 CNS | HT29 colon | DMS 114 small cell lung | U251 CNS | A498 renal | HOP-62 NSCLC | UO-31 renal | HOP-18 NSCLC | UACC-257 melanoma | A549 NSCLC | CCRF-CEM leukemia | TK-10 renal | K-562 leukemia | 786-0 renal | SNB-19 CNS | SK-MEL-5 melanoma | EKVX NSCLC | XF 498 CNS | LOX IMVI melanoma | UACC-62 melanoma | SF-268 CNS | NCI-H522 lung | RPMI-8226 leukemia | DMS 273 small cell lung | OVCAR-3 ovarian | SNB-75 CNS | COLO 205 colon | M14 melanoma | MOLT-4 leukemia | HCT-116 colon | MALME-3M melanoma | SR leukemia | SK-OV-3 ovarian | NCI-H226 lung | OVCAR-4 ovarian | SK-MEL-2 melanoma | HL-60(TB) leukemia | KM20L2 colon | NCI-H460 lung | SF-539 CNS | SN12C renal | IGROV1 ovarian | KM12 colon | OVCAR-5 ovarian | SW-620 colon | LXFL 529 NSCLC | NCI-H23 lung | OVCAR-8 ovarian | M19-MEL melanoma | HCT-15 colon | CAKI-1 renal | DLD-1 colon
